Data: patent publication US8013153B2, “Substituted pyrimidine kinase inhibitors” (Janssen Pharmaceutica, N.V., priority 2006, dated 2011)
Read-outs that look alike come from different tables or passages of the source.

Experiments:
murine Aurora-A = target: T1, murine Aurora-A (Mus musculus, UniProt P97477); test: Aurora-A Screening Assay; format: biochemical
T1 construct: replaced with the full length protein encoding the murine Aurora-A; made in house; host or cells: sf9 insect cells
T1 sequence (P97477 1-395): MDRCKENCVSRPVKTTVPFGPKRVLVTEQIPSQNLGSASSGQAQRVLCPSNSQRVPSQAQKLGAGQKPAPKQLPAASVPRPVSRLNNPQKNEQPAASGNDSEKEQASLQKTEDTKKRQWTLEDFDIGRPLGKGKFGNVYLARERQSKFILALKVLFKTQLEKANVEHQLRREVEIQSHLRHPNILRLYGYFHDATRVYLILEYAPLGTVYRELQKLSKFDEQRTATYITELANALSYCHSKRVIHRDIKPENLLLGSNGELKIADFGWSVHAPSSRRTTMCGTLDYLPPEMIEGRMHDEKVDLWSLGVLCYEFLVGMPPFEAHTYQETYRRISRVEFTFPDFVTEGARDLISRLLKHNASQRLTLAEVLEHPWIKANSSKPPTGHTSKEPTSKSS
Procedure: (§1) A kinase reaction mixture was prepared containing 50 mM Tris-HCl pH=8, 10 mM MgCl2, 0.1 mM Na3PO4, 1 mM DTT, 10 μM ATP, 0.025 μM biotinylated histone-H1 peptide substrate and 0.2 μCuries per well ^33P-γ-ATP (2000-3000 Ci/mmol). 70 μL of the kinase reaction mixture was dispensed into the well of a streptavidin coated FlashPlate™ (Cat. # SMP103, NEN, Boston, Mass.). Then 1 μL of test compound stock in 100% DMSO was added to the wells resulting in a final concentration of 1% DMSO in the reaction with a 100 μL final reaction volume.
(§2) The CDK1:Cyclin-B protein was diluted in 50 mM Tris-HCl pH=8.0, 0.1% BSA at a concentration of 1 ng per μL and 30 μL (30 ng enzyme per test well) was added to each well to initiate the reaction. The reaction was incubated for one hour at 30° C. At the end of the 1 hour incubation, the reaction was terminated by aspirating the mixture from the plate and washing the wells twice with PBS containing 100 mM EDTA. The histone-H1 biotinylated peptide substrate became immobilized on the Flashplate™ and the incorporation of ^33P-γ-ATP was measured by reading the plate on a scintillation counter. Inhibition of the enzymatic activity of CDK1 was measured by observing a reduced amount of ^33P-γ-ATP incorporated into the immobilized peptide.
The Aurora-A kinase assay was carried out using the CDK kinase assay procedure except that the enzyme was replaced with the full length protein encoding the murine Aurora-A (Accession #GB BC014711) expressed and purified from sf9 insect cells.

HCT-116 colon carcinoma = test: Inhibition of in vitro cell proliferation (HCT116); format: cell-based, human;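 note: cells exposed to compound for 24 h, then 14C-thymidine added for a further 24 h and its uptake into DNA counted by scintillation, DMSO-only wells as control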
A375 malignant melanoma = test: Inhibition of in vitro cell proliferation (A375); format: cell-based, human;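 note: cells plated for 24 h, given compound for 24 h, then labelled with 14C-thymidine for another 24 h, with DMSO-only wells as control and counts read by scintillation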
CDK1:Cyclin-B = target: T2, CDK1:Cyclin-B (Homo sapiens, UniProt P06493); test: CDK1 Screening Assay; format: biochemical
T2 construct: purchased New England Biolabs, Beverly, Mass; 6020; host or cells: insect cells
Procedure: as §1, §2
The CDK1 used was isolated from insect cells expressing both the human CDK1 catalytic subunit and its positive regulatory subunit cyclin B (New England Biolabs, Beverly, Mass., Cat. #6020).

[1] = target: T3, rat VEGF-R2 kinase domain (Rattus norvegicus, UniProt O08775); test: VEGF-R2 Screening Assay; format: biochemical; conditions: > means no observed 50% inhibition at the indicated test concentration; ~ means approximately 50% inhibition at that concentration; read-out: IC50 VEGF-R2
T3 construct: amino acids 786-1343 of the rat VEGF-R2 kinase domain; polyhistidine (N)

[2] = test system: HeLa cervical adenocarcinoma; test: Inhibition of in vitro cell proliferation (HeLa); format: cell-based, human; conditions: 14C-thymidine incorporation;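 note: cells exposed to compound for 24 h, then labelled 24 h with methyl 14C-thymidine, with uptake into DNA counted by scintillation against DMSO-only control wells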
HER2 cytoplasmic domain = target: T4, HER2 cytoplasmic domain (Homo sapiens, UniProt P04626); test: HER2 Kinase Screening Assay; format: biochemical; conditions: > means no observed 50% inhibition at the indicated test concentration; ~ means approximately 50% inhibition at that concentration
T4 construct: polyhistidine (N)
Procedure: as §1, §2
The HER2 kinase assay was carried out using the CDK kinase assay procedure except that the enzyme was replaced with a HER2 construct containing a polyhistidine tag at the N-terminus followed by 24 additional amino acids and the HER2 cytoplasmic domain beginning at amino acid 676 (Accession #M11730) to the end.

[3] = Homo sapiens, HCT-116, 14C-thymidine incorporation
[4] = Homo sapiens, A-375, 14C-thymidine incorporation
[5] = > means no observed 50% inhibition at the indicated test concentration, ~ means approximately 50% inhibition at that concentration

T3 sequence (O08775 786-1343): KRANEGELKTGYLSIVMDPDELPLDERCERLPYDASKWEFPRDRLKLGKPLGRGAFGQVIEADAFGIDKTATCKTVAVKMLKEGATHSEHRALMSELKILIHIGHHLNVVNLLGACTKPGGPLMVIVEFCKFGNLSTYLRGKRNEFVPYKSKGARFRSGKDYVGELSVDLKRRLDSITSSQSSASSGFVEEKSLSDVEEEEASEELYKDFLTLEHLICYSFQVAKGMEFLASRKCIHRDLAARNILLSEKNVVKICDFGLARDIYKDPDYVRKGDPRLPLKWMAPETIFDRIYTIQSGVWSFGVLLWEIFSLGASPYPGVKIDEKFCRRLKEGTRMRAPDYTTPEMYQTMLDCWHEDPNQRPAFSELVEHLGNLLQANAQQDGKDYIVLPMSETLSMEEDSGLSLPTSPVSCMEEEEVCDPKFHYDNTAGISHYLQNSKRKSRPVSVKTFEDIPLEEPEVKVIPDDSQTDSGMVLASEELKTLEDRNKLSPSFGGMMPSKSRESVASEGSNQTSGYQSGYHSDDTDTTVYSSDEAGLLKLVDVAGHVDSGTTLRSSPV
T2 sequence (P06493 whole entry): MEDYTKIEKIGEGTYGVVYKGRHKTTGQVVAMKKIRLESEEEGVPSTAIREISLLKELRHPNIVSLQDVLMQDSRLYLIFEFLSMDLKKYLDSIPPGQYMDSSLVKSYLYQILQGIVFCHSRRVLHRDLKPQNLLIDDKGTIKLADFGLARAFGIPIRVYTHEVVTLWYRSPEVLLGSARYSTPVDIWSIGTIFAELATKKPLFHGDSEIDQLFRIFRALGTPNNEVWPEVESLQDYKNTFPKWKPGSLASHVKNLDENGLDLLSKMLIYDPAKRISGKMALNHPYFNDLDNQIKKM
T2 sequence (P14635 whole entry partner): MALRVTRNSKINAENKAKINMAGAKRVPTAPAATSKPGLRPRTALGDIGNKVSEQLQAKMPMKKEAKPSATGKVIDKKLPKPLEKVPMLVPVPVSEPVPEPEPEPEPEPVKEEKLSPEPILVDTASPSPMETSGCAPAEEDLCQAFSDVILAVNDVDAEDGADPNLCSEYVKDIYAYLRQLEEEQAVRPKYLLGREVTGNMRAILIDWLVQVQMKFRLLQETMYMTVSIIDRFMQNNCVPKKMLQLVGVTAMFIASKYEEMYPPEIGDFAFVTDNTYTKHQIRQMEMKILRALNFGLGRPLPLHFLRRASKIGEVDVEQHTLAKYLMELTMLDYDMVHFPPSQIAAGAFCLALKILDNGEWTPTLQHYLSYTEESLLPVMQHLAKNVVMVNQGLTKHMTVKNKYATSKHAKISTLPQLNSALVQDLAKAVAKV
T4 sequence (P04626 676-1255 limits assumed): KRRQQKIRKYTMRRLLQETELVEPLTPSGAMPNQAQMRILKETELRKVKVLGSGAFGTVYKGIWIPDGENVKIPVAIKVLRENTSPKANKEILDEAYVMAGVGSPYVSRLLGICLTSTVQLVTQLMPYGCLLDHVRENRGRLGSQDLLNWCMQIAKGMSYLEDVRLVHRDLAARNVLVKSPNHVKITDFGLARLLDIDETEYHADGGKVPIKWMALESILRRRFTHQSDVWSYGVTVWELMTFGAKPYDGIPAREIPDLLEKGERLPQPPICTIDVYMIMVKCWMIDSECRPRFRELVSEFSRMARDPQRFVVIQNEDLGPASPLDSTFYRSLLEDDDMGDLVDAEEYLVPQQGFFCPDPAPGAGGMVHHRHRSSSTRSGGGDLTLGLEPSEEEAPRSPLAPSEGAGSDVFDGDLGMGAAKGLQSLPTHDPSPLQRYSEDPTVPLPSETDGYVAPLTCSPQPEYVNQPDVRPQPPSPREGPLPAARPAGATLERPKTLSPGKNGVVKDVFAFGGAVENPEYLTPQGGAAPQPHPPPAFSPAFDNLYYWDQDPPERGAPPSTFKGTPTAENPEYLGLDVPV

| Compound | IC50 (murine Aurora-A) [µM] | IC50 (HCT-116 colon carcinoma; [3]) [µM] | IC50 (A375 malignant melanoma; [4]) [µM] | IC50 (CDK1:Cyclin-B) [µM] | IC50 [1] [µM] | IC50 ([2]; Homo sapiens) [µM] | IC50 (HER2 cytoplasmic domain) [µM] | IC50 (HCT-116 colon carcinoma; 14C-thymidine incorporation) [µM] | IC50 (A375 malignant melanoma; 14C-thymidine incorporation) [µM] | IC50 [2] [µM] | IC50 (murine Aurora-A; [5]) [µM] | IC50 (CDK1:Cyclin-B; [5]) [µM] |
| --- | --- | --- | --- | --- | --- | --- | --- | --- | --- | --- | --- | --- |
| CON=Cc1c(N)ncnc1Oc1ccc(NC(=O)Nc2ccc(F)cc2F)c(Cl)c1 [Cpd 61, 1-{4-[6-amino-5-(methoxyimino-methyl)-pyrimidin-4-yloxy]-2-chloro-phenyl}-3-(2,4-difluoro-phenyl)-urea] | > 100 | > 10 | > 100 | > 100 | 0.003 | > 100 | > 100 | – | – | – | – | – |
| CON=Cc1c(N)ncnc1Oc1ccc(NC(=O)Nc2ccc(OC)cc2)c(Cl)c1 [Cpd 62, 1-{4-[6-amino-5-(methoxyimino-methyl)-pyrimidin-4-yloxy]-2-chloro-phenyl}-3-(4-methoxy-phenyl)-urea] | > 100 | – | – | > 100 | 0.0016 | – | > 100 | > 100 | > 100 | > 100 | – | – |
| CON=Cc1c(N)ncnc1Oc1ccc(NC(=O)Nc2ccc(OC)cc2)c(Cl)c1 [Cpd 63, 1-{4-[6-amino-5-(methoxyimino-methyl)-pyrimidin-4-yloxy]-2-chloro-phenyl}-3-(4-methoxy-phenyl)-urea] | – | – | – | – | 0.0022 | – | > 10 | > 10 | > 10 | > 10 | > 100 | > 100 |
| CCCCNC(=O)Nc1ccc(Oc2ncnc(N)c2C=NOC)cc1Cl [Cpd 64, 1-{4-[6-amino-5-(methoxyimino-methyl)-pyrimidin-4-yloxy]-2-chloro-phenyl}-3-butyl-urea] | > 100 | > 100 | > 100 | > 100 | 0.0072 | > 100 | > 100 | – | – | – | – | – |
| CON=Cc1c(N)ncnc1Oc1ccc(NC(=O)NC2CCCCC2)c(Cl)c1 [Cpd 65, 1-{4-[6-amino-5-(methoxyimino-methyl)-pyrimidin-4-yloxy]-2-chloro-phenyl}-3-cyclohexyl-urea] | > 100 | > 100 | > 100 | > 100 | 0.0065 | > 100 | > 10 | – | – | – | – | – |
| CON=Cc1c(N)ncnc1Oc1ccc(O)cc1 [Cpd 67, 4-amino-6-(4-hydroxy-phenoxy)-pyrimidine-5-carbaldehyde O-methyl-oxime] | 17.8 | 2.95 | 3.22 | > 100 | 4.36 | 3.99 | 13.1 | – | – | – | – | – |
| CNC(=O)Nc1ccc(Oc2ncnc(N)c2C=NOC)c(Cl)c1 [Cpd 70, 1-{4-[6-amino-5-(methoxyimino-methyl)-pyrimidin-4-yloxy]-3-chloro-phenyl}-3-methyl-urea] | > 10 | 4.86 | 2.55 | > 100 | 0.278 | 4.06 | > 100 | – | – | – | – | – |
| CCNC(=O)Nc1ccc(Oc2ncnc(N)c2C=NOC)c(Cl)c1 [Cpd 71, 1-{4-[6-amino-5-(methoxyimino-methyl)-pyrimidin-4-yloxy]-3-chloro-phenyl}-3-ethyl-urea] | > 10 | 4.79 | 3.09 | > 100 | 0.179 | 3.98 | > 1 | – | – | – | – | – |
| CNC(=O)Nc1ccc(Oc2ncnc(N)c2C=NOC)cc1F [Cpd 72, 1-{4-[6-amino-5-(methoxyimino-methyl)-pyrimidin-4-yloxy]-2-fluoro-phenyl}-3-methyl-urea] | > 100 | > 10 | > 10 | > 100 | 0.142 | > 10 | > 10 | – | – | – | – | – |
| CNC(=O)Nc1ccc(Oc2ncnc(N)c2C=NOC)cc1Br [Cpd 73, 1-{4-[6-amino-5-(methoxyimino-methyl)-pyrimidin-4-yloxy]-2-bromo-phenyl}-3-methyl-urea] | > 10 | > 10 | > 10 | > 10 | > 100 | > 10 | > 1 | – | – | – | – | – |
| CON=Cc1c(N)ncnc1Oc1ccc(NC(=O)Nc2ccc(F)cc2)c(Br)c1 [Cpd 74, 1-{4-[6-amino-5-(methoxyimino-methyl)-pyrimidin-4-yloxy]-2-bromo-phenyl}-3-(4-fluoro-phenyl)-urea] | > 100 | > 100 | > 10 | > 100 | ~100 | > 100 | > 1 | – | – | – | – | – |
| CON=Cc1c(N)ncnc1Oc1ccc(NC(=O)Nc2ccccc2C)c(Cl)c1 [Cpd 75, 1-{4-[6-amino-5-(methoxyimino-methyl)-pyrimidin-4-yloxy]-2-chloro-phenyl}-3-o-tolyl-urea] | > 100 | > 100 | > 100 | > 100 | 0.0079 | > 100 | > 100 | – | – | – | – | – |
| CON=Cc1c(N)ncnc1Oc1ccc(NC(=O)Nc2cccc(C)c2)c(Cl)c1 [Cpd 76, 1-{4-[6-amino-5-(methoxyimino-methyl)-pyrimidin-4-yloxy]-2-chloro-phenyl}-3-m-tolyl-urea] | > 100 | > 10 | > 10 | > 100 | 0.002 | > 10 | > 10 | – | – | – | – | – |
| CON=Cc1c(N)ncnc1Oc1ccc(NC(=O)Nc2ccc(C)cc2)c(Cl)c1 [Cpd 77, 1-{4-[6-amino-5-(methoxyimino-methyl)-pyrimidin-4-yloxy]-2-chloro-phenyl}-3-p-tolyl-urea] | > 100 | > 100 | > 100 | > 100 | 0.0016 | > 100 | > 100 | – | – | – | – | – |
| CON=Cc1c(N)ncnc1Oc1ccc(NC(=O)NCc2ccc(F)cc2F)c(Cl)c1 [Cpd 78, 1-{4-[6-amino-5-(methoxyimino-methyl)-pyrimidin-4-yloxy]-2-chloro-phenyl}-3-(2,4-difluoro-benzyl)-urea] | > 100 | > 100 | > 100 | > 100 | 0.0103 | > 100 | > 100 | – | – | – | – | – |
| C#CCNC(=O)Nc1ccc(Oc2ncnc(N)c2C=NOC)cc1Cl [Cpd 79, 1-{4-[6-amino-5-(methoxyimino-methyl)-pyrimidin-4-yloxy]-2-chloro-phenyl}-3-prop-2-ynyl-urea] | > 100 | 3.72 | 2.2 | > 100 | 0.0275 | 3.58 | > 100 | – | – | – | – | – |
| CON=Cc1c(N)ncnc1Oc1ccc(NC(=O)NC(C)C)c(Cl)c1 [Cpd 80, 1-{4-[6-amino-5-(methoxyimino-methyl)-pyrimidin-4-yloxy]-2-chloro-phenyl}-3-isopropyl-urea] | > 10 | > 10 | > 1 | > 100 | 0.0729 | > 10 | > 10 | – | – | – | – | – |
| CON=Cc1c(N)ncnc1Oc1ccc(NC(=O)NCCO)c(Cl)c1 [Cpd 81, 1-{4-[6-amino-5-(methoxyimino-methyl)-pyrimidin-4-yloxy]-2-chloro-phenyl}-3-(2-hydroxy-ethyl)-urea] | > 100 | 4.06 | 3.91 | > 100 | 0.168 | 4.27 | > 100 | – | – | – | – | – |
